Measurements reported in PubChem BioAssay AID1117361 (Southern Research Institute, 2015).

Target: Protein Tat (Human immunodeficiency virus type 1 group M subtype B (isolate HXB2)) (UniProt P04608)
Test: inhibitors of Tat binding to TAR RNA, dose response, counter-screen for Vif-APOBEC3G degradation inhibitor project, biochemical, fluorescence polarization, FAM-labeled TAR RNA (AID 1117361)

Chain of Protein Tat (Human immunodeficiency virus type 1 group M subtype B (isolate HXB2)) (P04608 whole entry, looked up): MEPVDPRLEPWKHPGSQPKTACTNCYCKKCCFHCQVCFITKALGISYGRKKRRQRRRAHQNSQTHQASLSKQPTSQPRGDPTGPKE

Structure (SMILES) | IC50 [µM]
Cc1nc2ncccn2c1-c1csc(NCc2ccco2)n1 | 6.08
Cc1cc(=O)c2c(O)c(O)ccc2o1 | 47.4
COC(=O)COc1ccc(S(=O)(=O)Nc2cc(OC)ccc2OC)cc1 | 28.2
CCOC(=O)c1c(C)oc2c1c(C=NCc1ccccn1)c(O)c1ccccc12 | 4.15
O=S(=O)(O)c1cc(O)c2c(O)c(N=Nc3cc(Cl)ccc3O)c(S(=O)(=O)O)cc2c1 | 15.9
COc1ccc(-c2cc(-c3ccco3)[nH]c(=O)c2C#N)cc1 | 15.1
COCCn1nnnc1C(c1cc2cc(OC)c(OC)cc2[nH]c1=O)N1CCN(c2ccc(O)cc2)CC1 (stereo not drawn) | 94.3
CCCCNC(=O)c1ccc2nc(-c3ccco3)c(-c3ccco3)nc2c1 | 6.84
Cc1c2ccccc2nc2c(F)c(N(C)C)c(F)c(F)c12 | 6.51
CC1=CC(C)(C)Nc2ccc(OC(=O)CN3C(=O)c4cccc5cccc(c45)C3=O)cc21 | 15.3
CC(=O)N1CCN(c2nc(-c3ccco3)c3c(c2C#N)CC(C)(C)SC3)CC1 | 58.8
O=C(O)C1Nc2c(O)cc(Cl)c([N+](=O)[O-])c2C2C=CCC12 (stereo not drawn) | 1.64
COc1cc(C2C(C#N)=C(N)N(c3cccnc3)C3=C2C(=O)CCC3)ccc1O (stereo not drawn) | 43.4
O=C1/C(=C/C=C/c2ccco2)SC(=S)N1NS(=O)(=O)c1ccccc1 | 2.48
CN(CCC#N)C(=O)COC(=O)c1c2c(nc3ccccc13)/C(=C\c1ccco1)CC2 | 79.8
CC(=C/C(=O)O)/C=C/c1ccc(Cl)o1 | 92
COc1ccc(C2=NCC(=O)N(CC(=O)NCc3ccco3)c3sc4c(c32)CCCC4)cc1OC | 82.3
CCc1cc(=O)n2[nH]c(C)c(-c3ccccc3OC)c2n1 | 12.7
CC1=C(C#N)C(=O)N(C2CCS(=O)(=O)C2)C(=O)/C1=C\c1ccc(C)o1 (stereo not drawn) | 1.35
CCCCC1=CC2=C(c3ccco3)C(=O)C(C)(OC(=O)c3ccc(OC)cc3)C(=O)C2=CN1CCCCO (stereo not drawn) | 29.3

Structure (SMILES) | IC50 [µM]
Cc1ccc(C(=O)Nc2ccc(O)c(C(=O)O)c2)o1 | 19.4
Oc1ccc(NCc2cccc(OCc3ccccc3)c2)cc1 | 66.7
CC1=CC2(O)OCCN(CCO)C2=CC1=O (stereo not drawn) | 34.5
CSc1nc(NCCOCCO)c2sc3nc(-c4ccco4)c4c(c3c2n1)CCC4 | 9.42
O=C1CC(Nc2ccc(N3CCOCC3)cc2)C(=O)N1c1ccccc1F (stereo not drawn) | 12.9
C=CCn1c(SCC(=O)NCCCC)nc2scc(-c3ccco3)c2c1=O | 17.8
O=c1cc(-c2ccc(O)cc2)oc2c(O)c(O)c(O)c(O)c12 | 74.9
N#Cc1c(-c2ccco2)c2c([nH]c1=S)CCCC2 | 8.34
Cc1ccc(C)n1-c1sccc1C(=O)O | 0.909
O=C1/C(=C\c2ccco2)SC(=S)N1Cc1ccccc1 | 17.5
O=C(O)c1ccc(-n2cccc2/C=C2/NC(=O)N(c3cccc(Cl)c3)C2=O)cc1 | 7.85
CN(C)c1ccc(N=C/C=C2/N(C)c3ccccc3C2(C)C)cc1 | 64.4
O=[n+]1c2c(n([O-])c3cc(F)c(F)cc31)CCCC2 | 11.1
Oc1ccc(N=Cc2ccc(-c3cccs3)s2)cc1 | 8.64
CC1=CN2C(=N)/C(=C/c3ccc([N+](=O)[O-])o3)C(=O)N=C2S1 | 12.2
O=C(O)c1ccc(-n2cccc2/C=N\NC(=O)c2cc3cc(Br)ccc3o2)cc1 | 13.8
CCOC(=O)C(=O)NCc1ccc(/C=C2/N=C(C)C(C(=O)OCC)=C2O)o1 | 4.71
CNc1c(C(=O)O)ccc2c1C(=O)c1ccccc1C2=O | 21.9
COC(=O)C1=C(N)OC2=C(C(=O)CCC2)C1c1cccs1 (stereo not drawn) | 52.2
CCN(CC)c1ccc2oc(=O)c(C)nc2c1 | 20.2

Structure (SMILES) | IC50 [µM]
Cc1cc(C(=O)COC(=O)c2cc(O)c3ccccc3c2O)c(C)n1CC1CCCO1 (stereo not drawn) | 9.14
Cc1c(Cl)cccc1NS(=O)(=O)c1ccc2c(c1)C1C=CCC1C(c1ccc(C(=O)O)cc1)N2 (stereo not drawn) | 8.54
CCCCC1=CC2=CC(=O)C(C)(OC(=O)c3cnc4ccccc4n3)C(=O)C2=CO1 (stereo not drawn) | 7.3
O=C(O)/C=C/C(=O)Nc1cccnc1 | 2.02
Cc1ccc(Cl)cc1N1CCN(C(=O)COc2ccc3c(c2)CCC3)CC1 | 57.2
CN(Cc1cnc2nc(N)nc(N)c2n1)c1ccc(C(=O)NC(CCC(=O)O)C(=O)O)cc1 (stereo not drawn) | 40.1
CC1=NN(C(N)=S)C(=O)C1N=Nc1cccc([N+](=O)[O-])c1 (stereo not drawn) | 99.2
COc1ccc(C2=CC(c3ccc(Cl)cc3)n3cnnc3N2)cc1OC (stereo not drawn) | 6.19
C=C(C)C(=O)Nc1cccc(C2=NOC3(C2)C[C@@H](C(N)=O)N(C(=O)CCCCC)C3)c1 (stereo partly drawn) | 5.76
CCCc1cc(=O)oc2cc(C)c(CN3CCCC3)c(O)c12 | 16.9
CCCn1c(=N)n(CC(O)c2ccco2)c2ccccc21 (stereo not drawn) | 78.2
O=C1C(Cl)=C(N2CCOCC2)C(=O)N1c1ccccc1 | 16.6
Clc1ccc(-c2cn3cccnc3n2)cc1Cl | 90.9
Cc1ccc(/C=C/C2=Cc3c(sc(NC(=O)CSc4n[nH]c(N)n4)c3C#N)C(C)(C)C2)o1 | 3.04
C=CCn1c(C)c(C(C)=O)c(N2CCN(c3ccccc3)CC2)nc1=S | 7.51
O=C(N/N=C/c1ccc(O)c(O)c1O)/C(=C/c1ccc([N+](=O)[O-])cc1)NC(=O)c1ccccc1 | 7.17
O=C1CCCC(O)=C1N=Nc1ccc(C(=O)O)cc1 | 6.47
O=C1/C(=C/c2ccco2)Oc2c1ccc(O)c2CN1CCCCC1 | 4.3
